Experiments:
[1] = aqueous solubility of cilostazol polymorphic forms; assay type: physicochemical
[2] = bioavailability; assay type: in vivo; settings: Form A as prepared by the procedures of the '479 patent
[3] = stability of the crystalline form; assay type: physicochemical
[4] = solid state phase transformation of disturbed sample on heating by DSC; assay type: physicochemical; settings: sample disturbed with scratching / stressed, DSC heating from 30° C. to approximately 200° C. at 10° C. per minute, followed by melt at about 160° C. (Form A)
Description: Characterization of Form A of cilostazol, Form B of cilostazol, and Form C of cilostazol was further completed using DSC thermograms, shown in FIGS. 3, 4, and 5, respectively, with DSC thermograms for combinations of Form A and Form B; Form B and Form C; and Forms A, B, and C are shown in FIGS. 6, 7, and 8 respectively. DSC data were generated using a Mettler-Toledo DSC 821^e (Columbus, Ohio) with a Julabo FT900 intercooler chiller (Julabo Company; Allentown, Pa.). In general, samples were analyzed in a vented, sealed aluminum pan. Because the endothermic peak may vary depending upon the rate of heating and the calibration and precision of the instrument, with the amount of peak variation dependent upon the heating rate used, all thermograms included herein were run under the same, consistent conditions: heating at 10° C. per minute under a nitrogen purge at 40 mL/minute. The resultant sample of Example 1A was disturbed with scratching, which caused the cilostazol sample to undergo a solid state phase transformation at approximately 119° C. followed by an endotherm of melt at approximately 160° C. (Form A) during heating by DSC from 30° C. to approximately 200° C. at 10° C. per minute. When the sample is stressed and reheated (as detailed in Example 2A), the sample undergoes a solid state phase transformation at approximately 147° C. followed by an endotherm of melt at about 160° C. […]

Compound: O=C1CCc2cc(OCCCCc3nnnn3C3CCCCC3)ccc2N1 [Form A, 6-[4-(1-cyclohexyl-1H-tetrazol-5-yl)butoxy]-3,4-dihydro-2(1H)-quinolinone]
- aqueous solubility ([1]; Form A as prepared by the procedures of the '479 patent): low
- bioavailability [2]: low

Compound: O=C1CCc2cc(OCCCCc3nnnn3C3CCCCC3)ccc2N1 [Form B, 6-[4-(1-cyclohexyl-1H-tetrazol-5-yl)butoxy]-3,4-dihydro-2(1H)-quinolinone]
- solubility relative to Form A ([1]; inferred from lower melting point in DSC thermogram (FIG. 8), solubility itself not measured): more soluble than Form A
- stability of the polymorphic form [3]: stable
- solid state phase transformation temperature (to Form A) ([4]; listed as Example 1A): approximately 119 °C

Compound: O=C1CCc2cc(OCCCCc3nnnn3C3CCCCC3)ccc2N1 [Form C, 6-[4-(1-cyclohexyl-1H-tetrazol-5-yl)butoxy]-3,4-dihydro-2(1H)-quinolinone]
- solid state phase transformation temperature (to Form A) ([4]; listed as Example 2A): approximately 147 °C
